Source: patent US11717477B2, “Vaginal systemic drug delivery” (LiGalli B.V., priority 2018, dated 2023)
Several values for one entry are separate records, joined by “and”; a condition that tells them apart may be missing. Equal entries are not always repeated. Structures can show the parent of a compound that is named as a salt. Where two headings read alike, the source gives them in different places.

Key:
in vivo = conditions: female, Beagle, dog
[1] = cited from earlier work
[2] = cited from earlier work; remark: listed apart in the source
[3] = physiological release of oxytocin; cited from earlier work
[4] = 5 min after first vaginal dose, individual dogs
[5] = 10 min after first vaginal dose, individual dogs
[6] = 20 min after first vaginal dose, individual dogs
[7] = 30 min after first vaginal dose, individual dogs
[8] = 60 min after first vaginal dose, individual dogs
[9] = 135 min after first dose (second vaginal dose at 125 min), individual dogs
[10] = 155 min after first dose (second vaginal dose at 125 min), individual dogs
[11] = 185 min after first dose (second vaginal dose at 125 min), individual dogs
[12] = Dog, 2.5 mg/24 h, vaginal (ring), WO2011163358
[13] = Dog, 6.0 mg/24 h, vaginal (ring), WO2011163358
[14] = Dog, 10 mg/24 h, oral, WO2011163358
[15] = Human, dose 5.0, dermal (patch), Kennelly
[16] = Human, dose 5.0, oral (ext. rel.), Kennelly
[17] = Human, dose 5.0, oral, Kennelly
[18] = Human, dose 100, dermal (gel), Kennelly
[19] = Dog, Lorazepam 0.8 mg (1st), vaginal, present study
[20] = vaginal administration, Beagle dogs, two animals per compound
[21] = 0.8 mg, Lorazepam 0.8 mg (1st), vaginal, present study
[22] = 0.8 mg, Lorazepam 0.8 mg (2nd), vaginal, present study
[23] = Human, Lorazepam 2.0 mg, intramuscular, Wermeling
[24] = Human, Lorazepam 2.0 mg, intravenous, Wermeling
[25] = Human, Lorazepam 2.0 mg, nasal, Wermeling
[26] = Human, Lorazepam 2.0 mg, oral, Blin
[27] = Human, Nicotine 2.0 mg, intrapulmonary, Russell
[28] = Human, Nicotine 4.0 mg, oral (gum), Russell

## O=[N+]([O-])OCC(CO[N+](=O)[O-])O[N+](=O)[O-] [Nitroglycerin]
[4]
  Plasma concentration: <LLOQ
[5]
  Plasma concentration: <LLOQ
[6]
  Plasma concentration: <LLOQ
[7]
  Plasma concentration: <LLOQ
[8]
  Plasma concentration: <LLOQ
120 min after first vaginal dose, individual dogs
  Plasma concentration: <LLOQ
[9]
  Plasma concentration: <LLOQ
[10]
  Plasma concentration: <LLOQ
[11]
  Plasma concentration: <LLOQ
245 min after first dose (second vaginal dose at 125 min), individual dogs
  Plasma concentration: <LLOQ
Pre-dose, individual dogs
  Plasma concentration: <LLOQ
After vaginal administration of Nitroglycerin, Beagle dogs, listed as nitroglycerin
  Parent compound concentration detectable in plasma: no detectable concentrations

## CC(C)C[C@H](NC(=O)CNC(=O)[C@H](Cc1ccc(O)cc1)NC(=O)[C@H](CO)NC(=O)[C@H](Cc1c[nH]c2ccccc12)NC(=O)[C@H](Cc1cnc[nH]1)NC(=O)[C@@H]1CCC(=O)N1)C(=O)N[C@@H](CCCNC(=N)N)C(=O)N1CCC[C@H]1C(=O)NCC(N)=O [GnRH, Gonadotropin-releasing hormone]
dog, in vivo
  Plasma concentration: <LLOQ
  Time until plasma levels fall below LLOQ / return to baseline: ≤ 60 min
female, Beagle, dog, in vivo, 0.5 mg
  Tmax: 5 min
In vivo; 0.5 mg
  Tmax: 10 min
In vivo; 50 uL, Plasma concentration
  level at 20 min: 0.41 ng/mL
  level at 0.5 h: 0.2 ng/mL
  level at 2.25 h: 0.71 ng/mL
  level at 245 min: 0.19 ng/mL
In vivo
  Tmax: ≤ 5 min
[1]; human, in vivo, inhaled or intranasal, 0.8 mg
  Cmax: 0.35 ng/mL
[1]; human, in vivo
  Cmax: 0.002 ng/mL

## CCN(CC)CC#CCOC(=O)C(O)(c1ccccc1)C1CCCCC1 (stereo not drawn) [Oxybutynin HCl]
dog, in vivo
  Cmax / plasma concentration of one animal relative to the other animal: more than 3 times
  Elimination from the body: almost completely eliminated
  Plasma concentration: <LLOQ
In vivo
  Tmax: 10 min
[2]; [12]
  Cmax: 14.0 ng/mL
  Tmax: 90 min
[2]; [13]
  Cmax: 18.8 ng/mL
  Tmax: 90 min
[2]; [14]
  Cmax: 17.9 ng/mL
  Tmax: 180 min
[1]; [15]
  Cmax: 4.2 ng/mL
  Tmax: 1500 min
[1]; [16]
  Cmax: 2.1 ng/mL
  Tmax: 60 min
[1]; [17]
  Cmax: 10.0 ng/mL
  Tmax: 50 min
[1]; [18]
  Cmax: 3.2 ng/mL
  Tmax: 1500 min

## O=C1Nc2ccc(Cl)cc2C(c2ccccc2Cl)=NC1O (stereo not drawn) [Lorazepam]
[4]
  Plasma concentration: 1.55 ng/mL and 3.93 ng/mL
[5]
  Plasma concentration: 2.65 ng/mL and 3.47 ng/mL
[6]
  Plasma concentration: 2.23 ng/mL and 4.25 ng/mL
[7]
  Plasma concentration: 1.49 ng/mL and 3.28 ng/mL
[8]
  Plasma concentration: 0.38 ng/mL and 0.99 ng/mL
[9]
  Plasma concentration: 7.65 ng/mL and 7.13 ng/mL
[10]
  Plasma concentration: 4.96 ng/mL and 6.16 ng/mL
[11]
  Plasma concentration: 1.89 ng/mL and 3.32 ng/mL
[19]
  Cmax: 2.8 ng/mL
  Tmax: 10 min
Dog, Lorazepam 0.8 mg (2nd), vaginal, present study
  Cmax: 7.0 ng/mL
Pre-dose, individual dogs
  Plasma concentration: <LLOQ
After vaginal administration, Beagle dogs
  Time until plasma levels fall below LLOQ / return to baseline: ≤ 120 min
[20]
  Tmax: 20 min
In vivo; [21]
  Cmax: 4 ng/mL
  Tmax: 5 min
In vivo; [22]
  Cmax: 7.8 ng/mL
  Tmax: 10 min
In vivo; [20]
  Tmax: 10 min
[1]; [23]
  Cmax: 22.6 ng/mL
  Tmax: 180 min
[1]; [24]
  Cmax: 47.6 ng/mL
  Tmax: 6 min
[1]; [25]
  Cmax: 33.4 ng/mL
  Tmax: 55 min
[1]; [26]
  Cmax: 33.4 ng/mL
  Tmax: 55 min

## CN1CCCC1c1cccnc1 (stereo not drawn) [Nicotine]
dog, in vivo
  Cmax / plasma concentration of one animal relative to the other animal: more than 4 times
female, Beagle, dog, in vivo
  Time until plasma levels fall below LLOQ / return to baseline: ≤ 120 min
  Tmax: 10 min
female, Beagle, dog, in vivo, 2.5 mg
  Tmax: 5 min
In vivo; 2.5 mg
  Tmax: 10 min
In vivo
  Tmax: ≤ 5 min
[2]; dog, in vivo, po, 64 mg
  Tmax: 120 min
[2]; dog, in vivo, po, 148 mg
  Tmax: 60 min
[1]; [27]
  Cmax: 49 ng/mL
  Tmax: 2 min
[1]; [28]
  Cmax: 40 ng/mL
  Tmax: 30 min

## CC[C@H](C)[C@@H]1NC(=O)[C@H](Cc2ccc(O)cc2)NC(=O)[C@@H](N)CSSC[C@@H](C(=O)N2CCC[C@H]2C(=O)N[C@@H](CC(C)C)C(=O)NCC(N)=O)NC(=O)[C@H](CC(N)=O)NC(=O)[C@H](CCC(N)=O)NC1=O [oxytocin]
[3]
  half life time: less than 6 minutes
